Tests used:
SH-SY5Y = test: Impedance-based TCRP of SH-SY5Y cells, mutant ALK (F1174L); type: cell-based, human; settings: 10 uM
Description: The cell index (CI) was normalized at time of compound addition. […] DMSO was served as solvent control.
The cell index was normalized at time of compound addition. DMSO at the same dose was served as solvent control.
(§4) The cell index (CI) was normalized at time of compound addition.

H1993 = test: Impedance-based TCRP of Met addicted H1993 cells (xCelligence); type: cell-based, human; settings: H1993; increasing concentrations
Description: Cells were treated with ACEA348 (0-10 uM) for 30 min.
as §4
The time-dependent cell response profiles (TCRP) were monitored prior to and after the compound addition using the xCelligence system (ACEA Biosciences/Roche applied sciences).
The Cell index was normalized against the cell index values at a time point just before compound addition. […] EC50 and IC50 of the Met inhibitor can be derived from the CI versus the corresponding log concentration of the inhibitor.

C6 = test: Impedance-based TCRP of PDGFR addicted C6 glioma cells; type: cell-based, rat; settings: C6; increasing concentrations
Description: as §4
Kinase inhibitors including PDGFR inhibitors at different concentrations in DMSO were added into wells following the incubation period. The cell status was monitored prior to and after the compound addition using xCelligence system (Roche applied sciences). […] The Cell index was normalized against the cell index values at a time point just before compound addition.
IC50 of the PDGFR inhibitor can be derived from the CI versus the corresponding log concentration of the inhibitor.

Colo-205 = test: Impedance-based TCRP of Colo-205 cells, b-Raf (V600E); type: cell-based, human; settings: increasing concentrations
Description: (A) The impedance-based time-dependent cellular profiles (TCRPs) of colo205 in response to b-Raf inhibitor on xCelligence system (Roche/ACEA). […] The cell index (CI) was normalized at time of the compound addition. At the indicated time point of treatment (arrow), increasing concentrations of b-Raf inhibitor (from 0 to 10 uM) were added to the cells and the cell response was monitored. […] (B) IC50 of b-Raf derived from impedance-based TCRP.
as §4
(§5) Kinase inhibitors including b-Raf inhibitors at different concentrations in DMSO were added into wells following the incubation period. The cell status was monitored prior to and after the compound addition using xCelligence system (Roche applied sciences). […] The Cell index was normalized against the cell index values at a time point just before compound addition.

SK-MEL-28 = test: Impedance-based TCRP of SK-MEL-28, b-Raf (V600E) addicted melanoma cells; type: cell-based, human; settings: SK-MEL-28; increasing concentrations
Description: (A) The impedance-based time-dependent cellular profiles (TCRPs) of SK-MEL28 in response to b-Raf inhibitor on xCelligence system (Roche/ACEA). […] The cell index (CI) was normalized at time of the compound addition. At the indicated time point of treatment (arrow), increasing concentrations of b-Raf inhibitor (from 0 to 10 uM) were added to the cells and the cell response was monitored. […] (B) EC50 of b-Raf derived from impedance-based TCRP.
as §4
Cell lines. […] The time-dependent cell response profiles (TCRP) were monitored prior to and after the compound addition using the xCelligence system (ACEA Biosciences/Roche applied sciences).
as §5

BT20 = test: Impedance-based TCRP of BT20 cells (p110α P539R/H1047R) to PI3K inhibitor; type: cell-based; settings: Homo sapiens, BT-20, 10 min
Description: (§1) Cells were serum starved for 5 hour. The cell index was normalized at time of compound addition. At the indicated time point of treatment, increasing concentrations of PI103 (0-10 uM) was added to the cells and the cell responses were monitored.
(§2) Cell lines. A mouse fibroblast 10T1/2 expressing the cell-surface receptor TVA, which is specific for subgroup-A avian retroviruses was used. The cells were transformed by infection with human p110α (H1047R)-expressing avian retrovirus and are referred to as 10T1/2 tva-H1047R. A549 is a human lung cancer cell line expressing wild-type p110α. T47D and BT20 are human breast cancer cell lines expressing mutant p110α (T47D) and p110α (P539R/H1047R), respectively.
(§3) To test if the characteristic TCRP is specific to PI3K inhibition, we also test the cell responses in several other cell lines (FIG. 35). […] Such characteristic TCRP could be used for identifying or screening unknown biologically active agents which may act as PI3K inhibitors.

A549 = test: Impedance-based TCRP of A549 cells (wild-type p110α) to PI3K inhibitor; type: cell-based, human; settings: A549 expressing wild-type p110α; serum starved 5 hour
Description: as §1, §2, §3

10T1/2 tva-H1047R = test: Impedance-based TCRP of 10T1/2 tva-H1047R cells expressing human p110α (H1047R); type: cell-based, mouse
Description: as §4
A mouse fibroblast 10T1/2 expressing the cell-surface receptor TVA, which is specific for subgroup-A avian retroviruses was used. […] A549 is a human lung cancer cell line expressing wild-type p110α. T47D and BT20 are human breast cancer cell lines expressing mutant p110α (T47D) and p110α (P539R/H1047R), respectively.
(§6) Then the normal growth medium (10% FBS) was exchanged with medium containing 0% FBS. The cells were incubated for additional 5 hours before compound treatment. A PI3K inhibitor (PI103) at different concentrations in DMSO was added into wells following the incubation period. The cell status was monitored prior to and after the compound addition using xCelligence system (Roche applied sciences). […] Cell index of the cells treated with solvent DMSO control was used as baseline. The Cell index was normalized against the cell index values at a time point just before compound addition.

10T1/2 tva = test: Impedance-based TCRP of control cell line 10T1/2 tva; design: species or system mouse; settings: 10T1/2 tva control cell line; from 0 to 10 uM
Description: as §4, §6

T47D = test: Impedance-based TCRP of T47D cells (mutant p110α) to PI3K inhibitor; type: cell-based; settings: Homo sapiens, 10 min
Description: as §1, §2, §3

AKT phosphorylation = test: Western analysis of PI3K downstream signal in 10T1/2 tva-H1047R and 10T1/2 tva; type: cell-based, mouse; settings: 10 uM; treated for 2 hours; serum starved 5 hours
Description: Cells were lysed and subject to Western analyses. […] Equal intensity of GAPDH bands indicated equal protein loading.

RBL-2H3 = test: Impedance response of parental RBL-2H3 cells; type: cell-based, rat; settings: RBL-2H3 parental
Description: Cell lines. RBL2H3-PDGFR is engineered rat basophilic cell line that expresses exogenous PDGFRβ. RBL2H3 is the parental cell line.
RBL2H3-PDGFR overexpressing PDGFRβ was constructed by Lenti viral transduction of RBL2H3. Both RBL2H3-PDGFR and RBL2H3 cells were seeded at 20,000 cells per well of 96-well E-plate (Roche/ACEA). The cells were continuously monitored using the xCelligence system (Roche/ACEA).
Cells were serum starved for 2 hour, then stimulated by addition of PDGF BB (0-50 ng/ml). […] Plotting the peak normalized CI response versus the corresponding log concentration allows for calculation of the EC50 (1.07 ng.mL) of PDGF acting on PDGFR in the engineered cell line.
This dose-dependent decease in the CI is specific to PDGFR inhibition.

RBL-2H3 PDGFRβ = test: Impedance response of engineered RBL-2H3 PDGFRβ cells to PDGF stimulation and PDGFR inhibition; type: cell-based, rat; settings: serum starved 2 hour, peak normalized CI response
Description: RBL-2H3 PDGFRβ cells were seeded at 20,000 cells per well of 96-well E-plate (Roche/ACEA). The cells were continuously monitored using the xCelligence system (Roche/ACEA). […] The cell index (CI) was normalized at time of compound addition. Time zero depicts the time point of treatment. […] The cell index (CI) was normalized at time of compound addition. Time zero depicts the time point of treatment.

Q: For `COc1cc2ncnc(Nc3ccc(F)c(Cl)c3)c2cc1OCCCN1CCOCC1` [Gefitinib], which “TCRP (Cell Index response)” value (SH-SY5Y) is on record?
A: Its value is “None trigged a TCRP representative to that trigger by ALK inhibitors”.

Q: What about the “TCRP (Cell Index response)” value (H1993) of the same compound?
A: Its value is “None of these inhibitors induced a TCRP similar to PF2341006”.

Q: What about the “TCRP (Cell Index response)” value (C6) of the same compound?
A: The value was “did not affect CI changes that are significantly different from the negative control”.

Q: And the “TCRP (Cell Index response, cell growth)” value (Colo-205)?
A: The value was “did not inhibit Colo205 cell growth”.

Q: What about the “TCRP (Cell Index response)” value (SK-MEL-28) of the same compound?
A: The value was “did not affect CI changes that are significantly different from the negative control”.

Q: `Oc1cccc(-c2nc(N3CCOCC3)c3oc4ncccc4c3n2)c1` [PI103] was tested. Which IC50 (BT20) did it give?
A: Its IC50 is 165 nM.

Q: And the “TCRP (Cell Index response)” value (A549)?
A: The value was “did not show clear dose response”.

Q: And the “TCRP (Cell Index response)” value (10T1/2 tva-H1047R; 10T1/2 tva-H1047R in the presence of siRNA targeting human p110α, within 10 min of compound addition)?
A: The value was “no sharp decrease”.

Q: And the “TCRP (Cell Index response)” value (10T1/2 tva-H1047R; 10T1/2 tva-H1047R, serum starved, from 0 to 10 uM)?
A: Its value is “immediate decrease”.

Q: And the IC50 (10T1/2 tva-H1047R; Mus musculus, 5 h, read-out: IC50 (TCRP))?
A: The IC50 was 89 nM.

Q: And the “TCRP (Cell Index response)” value (10T1/2 tva)?
A: Its value is “did not show a clear dose response”.

Q: And the IC50 (T47D)?
A: Its IC50 is 126 nM.

Q: What about the “PI3K downstream signal (AKT phosphorylation), Western” value (AKT phosphorylation) of the same compound?
A: Its value is “efficiently inhibited”.

Q: Which results are given for “PDGF: PDGF BB, ligand used to stimulate PDGFRβ”?
A: Cell Index response of parental cell line (RBL-2H3): did not show any response; EC50 of PDGF acting on PDGFR (RBL-2H3 PDGFRβ): 1.07 ng·mL
